According to patent US20250179073A1, “TRICYCLIC HETEROCYCLE COMPOUNDS AS IAP ANTAGONISTS” (Ascentage Pharma (Suzhou) Co., Ltd., priority 2022, published 2025):

Key:
MDA-MB-231 cells = assay: Cell proliferation assay (CellTiter-Glo), MDA-MB-231; format: cell-based; conditions: Homo sapiens, MDA-MB-231, 72 h, 72 h treatment, Celltiter-Glo luminescence
Outline: (§1)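 Compounds tested over ten concentrations ([…]) for 72 h on EVSA-T cells in MEM/10% FBS and MDA-MB-231 cells in RPMI-1640/10% FBS, seeded at 10000/well. Luminescent CellTiter-Glo readout; IC50 fitted after normalisation to controls.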

EVSA-T cells = assay: Cell proliferation assay (CellTiter-Glo), EVSA-T; format: cell-based; conditions: Homo sapiens, EVSA-T, 72 h, 72 h treatment, Celltiter-Glo luminescence
Outline: as §1

Row | SMILES | IC50 (MDA-MB-231 cells) | IC50 (EVSA-T cells)
1 | C[C@@H]1CN(CC(=O)N2CC(C)(C)c3c2cc(Cc2ccc(F)cc2)c2nn([C@@H]4CCOC4)c(=O)n32)[C@@H](CN2CCOC[C@H]2C)CN1 [Compound 228, 4-(4-fluorobenzyl)-8,8-dimethyl-6-(2-((2R,5R)-5-methyl-2-(((R)-3-methylmorpholino)methyl)piperazin-1-yl)acetyl)-2-((R)-tetrahydrofuran-3-yl)-2,6,7,8-tetrahydro-1H-pyrrolo[2,3-e][1,2,4]triazolo[4,3-a]pyridin-1-one] | 9 nM | 2 nM
2 | CC(O)Cn1nc2c(Cc3ccc(F)cc3)cc3c(n2c1=O)C(C)(C)CN3C(=O)CN1C[C@@H](C)NC[C@@H]1CN1CCOC[C@H]1C (stereo partly drawn) [Compound 269, 4-(4-fluorobenzyl)-2-(2-hydroxypropyl)-8,8-dimethyl-6-(2-((2R,5R)-5-methyl-2-(((R)-3-methylmorpholino)methyl)piperazin-1-yl)acetyl)-2,6,7,8-tetrahydro-1H-pyrrolo[2,3-e][1,2,4]triazolo[4,3-a]pyridin-1-one] | 10 nM | 5.1 nM
3 | C[C@@H]1CN(CC(=O)N2CC(C)(C)c3c2cc(Cc2ccc(F)cc2)c2ncnn32)[C@@H](CN2Cc3ncccc3C2=O)CN1 [Compound 95, 6-(((2R,5R)-1-(2-(4-(4-fluorobenzyl)-8,8-dimethyl-7,8-dihydro-6H-pyrrolo[2,3-e][1,2,4]triazolo[1,5-a]pyridin-6-yl)-2-oxoethyl)-5-methylpiperazin-2-yl)methyl)-6,7-dihydro-5H-pyrrolo[3,4-b]pyridin-5-one] | 12 nM | 0.4 nM
4 | C[C@@H]1CN(CC(=O)N2CC(C)(C)c3c2cc(C(F)c2ccc(F)cc2)c2ncnn32)[C@@H](CN2CCOC[C@H]2C)CN1 (stereo partly drawn) [Compound 138, 1-(4-(fluoro(4-fluorophenyl)methyl)-8,8-dimethyl-7,8-dihydro-6H-pyrrolo[2,3-e][1,2,4]triazolo[1,5-a]pyridin-6-yl)-2-((2R,5R)-5-methyl-2-(((R)-3-methylmorpholino)methyl)piperazin-1-yl)ethan-1-one] | 160 nM | 33 nM
5 | C[C@@H]1CN(CC(=O)N2CC(C)(C)c3c2cc(Cc2ccc(F)cc2)c2c(C(N)=O)cnn32)[C@@H](CN2CCOC[C@H]2C)CN1 [Compound 149, 4-(4-fluorobenzyl)-8,8-dimethyl-6-(2-((2R,5R)-5-methyl-2-(((R)-3-methylmorpholino)methyl)piperazin-1-yl)acetyl)-7,8-dihydro-6H-pyrazolo[1,5-a]pyrrolo[2,3-e]pyridine-3-carboxamide] | 100 nM | 7 nM
6 | C[C@@H]1CN(CC(=O)N2CC(C)(C)c3c2cc(Cc2ccc(F)cc2O)c2ncnn32)[C@@H](CN2CCOC[C@H]2C)CN1 [Compound 42, 1-(4-(4-fluoro-2-hydroxybenzyl)-8,8-dimethyl-7,8-dihydro-6H-pyrrolo[2,3-e][1,2,4]triazolo[1,5-a]pyridin-6-yl)-2-((2R,5R)-5-methyl-2-(((R)-3-methylmorpholino)methyl)piperazin-1-yl)ethan-1-one] | 100 nM | 13 nM
7 | COCc1nc2c(Cc3ccc(F)cc3)cc3c(n2n1)C(C)(C)CN3C(=O)CN1C[C@@H](C)NC[C@@H]1CN1CCOC[C@H]1C [Compound 250, 1-(4-(4-fluorobenzyl)-2-(methoxymethyl)-8,8-dimethyl-7,8-dihydro-6H-pyrrolo[2,3-e][1,2,4]triazolo[1,5-a]pyridin-6-yl)-2-((2R,5R)-5-methy 1-2-(((R)-3-methylmorpholino)methyl)piperazin-1-yl)ethan-1-one] | 18 nM | 6.1 nM
8 | C[C@@H]1CN(CC(=O)N2CC(C)(C)c3c2cc(Cc2cccc(F)c2)c2ncnn32)[C@@H](CN2CCOC[C@H]2C)CN1 [Compound 39, 1-(4-(3-fluorobenzyl)-8,8-dimethyl-7,8-dihydro-6H-pyrrolo[2,3-e][1,2,4]triazolo[1,5-a]pyridin-6-yl)-2-((2R,5R)-5-methyl-2-(((R)-3-methylmorpholino)methyl)piperazin-1-yl)ethan-1-one] | 150 nM | 34 nM
9 | C[C@@H]1CN(CC(=O)N2CC(C)(C)c3c2cc(Cc2ccc(F)cc2)c2ncnn32)[C@@H](CN2CCC(C)(O)C[C@H]2C)CN1 (stereo partly drawn) [Compound 77, 1-(4-(4-fluorobenzyl)-8,8-dimethyl-7,8-dihydro-6H-pyrrolo[2,3-e][1,2,4]triazolo[1,5-a]pyridin-6-yl)-2-((2R,5R)-2-(((2R)-4-hydroxy-2,4-dimethylpiperidin-1-yl)methyl)-5-methylpiperazin-1-yl)ethan-1-one] | 70 nM | 5 nM

Further compounds by falling IC50 (MDA-MB-231 cells), results first:

Row | IC50 (MDA-MB-231 cells) | SMILES | IC50 (EVSA-T cells)
10 | 370 nM | C[C@@H]1CN(CC(=O)N2CC(C)(C)c3c2cc(Cc2ccc(F)cc2)c2nc(C(N)=O)nn32)[C@@H](CN2CCOC[C@H]2C)CN1 [Example 31, 4-(4-fluorobenzyl)-8,8-dimethyl-6-(2-((2R,5R)-5-methyl-2-(((R)-3-methylmorpholino)methyl)piperazin-1-yl)acetyl)-7,8-dihydro-6H-pyrrolo[2,3-e][1,2,4]triazolo[1,5-a]pyridine-2-carboxamide] | 3 nM
11 | 160 nM | Cc1cc(F)ccc1Cc1cc2c(n3ncnc13)C(C)(C)CN2C(=O)CN1C[C@@H](C)NC[C@@H]1CN1CCOC[C@H]1C [Compound 115, 1-(4-(4-fluoro-2-methylbenzyl)-8,8-dimethyl-7,8-dihydro-6H-pyrrolo[2,3-e][1,2,4]triazolo[1,5-a]pyridin-6-yl)-2-((2R,5R)-5-methyl-2-(((R)-3-methylmorpholino)methyl)piperazin-1-yl)ethan-1-one] | 30 nM
12 | 120 nM | C[C@@H]1CN(CC(=O)N2CC(C)(C)c3c2cc(Cc2ccc(F)cc2)c2nccn32)[C@@H](CN2CCOC[C@H]2C)CN1 [Example 17, 1-(4-(4-fluorobenzyl)-8,8-dimethyl-7,8-dihydro-6H-imidazo[1,2-a]pyrrolo[2,3-e]pyridin-6-yl)-2-((2R,5R)-5-methyl-2-(((R)-3-methylmorpholino)methyl)piperazin-1-yl)ethan-1-one] | 4 nM
13 | 100 nM | C[C@@H]1CN(CC(=O)N2CC(C)(C)c3c2cc(Cc2ccc(F)cc2)c2ccnn32)[C@@H](CN2CCOC[C@H]2C)CN1 [Compound 148, 1-(4-(4-fluorobenzyl)-8,8-dimethyl-7,8-dihydro-6H-pyrazolo[1,5-a]pyrrolo[2,3-e]pyridin-6-yl)-2-((2R,5R)-5-methyl-2-(((R)-3-methylmorpholino)Methyl)piperazin-1-yl)ethan-1-one] | 6 nM
14 | 97 nM | C[C@@H]1CN(CC(=O)N2CC(C)(C)c3c2cc(Cc2ccc(F)cc2)c2nc(C(F)(F)F)cn32)[C@@H](CN2CCN(C3COC3)C[C@H]2C)CN1 [Compound 181, 1-(4-(4-fluorobenzyl)-8,8-dimethyl-2-(trifluoromethyl)-7,8-dihydro-6H-imidazo[1,2-a]pyrrolo[2,3-e]pyridin-6-yl)-2-((2R,5R)-5-methyl-2-(((R)-2-methyl-4-(oxetan-3-yl)piperazin-1-yl)methyl)piperazin-1-yl)ethan-1-one] | 15 nM
15 | 25 nM | C[C@@H]1CN(CC(=O)N2CC(C)(C)c3c2cc(Cc2ccc(F)cc2)c2nn(CC4(O)CC4)c(=O)n32)[C@@H](CN2CCOC[C@H]2C)CN1 [Compound 240, 4-(4-fluorobenzyl)-2-((1-hydroxycyclopropyl)methyl)-8,8-dimethyl-6-(2-((2R,5R)-5-methyl-2-(((R)-3-methylmorpholino)methyl)piperazin-1-yl)acetyl)-2,6,7,8-tetrahydro-1H-pyrrolo[2,3-e][1,2,4]triazolo[4,3-a]pyridin-1-one] | 5.9 nM
16 | 23 nM | C[C@@H]1CN(CC(=O)N2CC(C)(C)c3c2cc(Cc2ccc(F)cc2)c2ncnn32)[C@@H](CN2Cc3ccc(F)cc3C2=O)CN1 [Compound 101, 6-fluoro-2-(((2R,5R)-1-(2-(4-(4-fluorobenzyl)-8,8-dimethyl-7,8-dihydro-6H-pyrrolo[2,3-e][1,2,4]triazolo[1,5-a]pyridin-6-yl)-2-oxoethyl)-5-methylpiperazin-2-yl)methyl)isoindolin-1-one] | 8 nM
17 | 21 nM | C[C@@H]1CN(CC(=O)N2CC(C)(C)c3c2cc(Cc2ccc(F)cc2)c2nn(C4CC(C)(O)C4)c(=O)n32)[C@@H](CN2CCOC[C@H]2C)CN1 (stereo partly drawn) [Compound 272, 4-(4-fluorobenzyl)-2-(3-hydroxy-3-methylcyclobutyl)-8,8-dimethyl-6-(2-((2R,5R)-5-methyl-2-(((R)-3-methylmorpholino)methyl)piperazin-1-yl)acetyl)-2,6,7,8-tetrahydro-1H-pyrrolo[2,3-e][1,2,4]triazolo[4,3-a]pyridin-1-one] | 2 nM
18 | 21 nM | C[C@@H]1CN(CC(=O)N2CC(C)(C)c3c2cc(Cc2ccc(F)cc2)c2nc(C4CC4)nn32)[C@@H](CN2CCOC[C@H]2C)CN1 [Compound 165, 1-(2-cyclopropyl-4-(4-fluorobenzyl)-8,8-dimethyl-7,8-dihydro-6H-pyrrolo[2,3-e][1,2,4]triazolo[1,5-a]pyridin-6-yl)-2-((2R,5R)-5-methyl-2-(((R)-3-methylmorpholino)methyl)piperazin-1-yl)ethan-1-one] | 4 nM
19 | 10 nM | C[C@@H]1CN(CC(=O)N2CC(C)(C)c3c2cc(Cc2ccc(F)cc2)c2ncnn32)[C@@H](CN2CCN(C3COC3)C[C@H]2C)CN1 [Compound 203, 1-(4-(4-fluorobenzyl)-8,8-dimethyl-7,8-dihydro-6H-pyrrolo[2,3-e][1,2,4]triazolo[1,5-a]pyridin-6-yl)-2-((2R,5R)-5-methyl-2-(((R)-2-methyl-4-(oxetan-3-yl)piperazin-1-yl)methyl)piperazin-1-yl)ethan-1-one] | 3 nM
